This note sets out measurements from US20020169111A1, “Reversal of multidrug resistance in human colon carcinoma cells” (American Cyanamid Comany, priority 1998, published 2002).

For assay [1], the system named is S1-M1-3.2 cells. As to the kind of experiment: Cytotoxicity of antitumor agents, 3-day SRB assay, mitoxantrone-selected cells. The format is cell-based, human. Particulars: relative to S1; 2-7 independent experiments. The protocol:
Cells were cultured for three days in the presence of the antitumor agent (triplicate points per dose). Following a 3-day growth period, cells were fixed in 10% trichloroacetic acid (TCA) for 1 hour, washed extensively with water, and cell-associated protein was stained using 0.1% sulforhodamine B (SRB), a protein binding reagent [Rubinstein et al., Journal of the National Cancer Institute 82, 1113-1118 (1990) and Skehan et al., Journal of the National Cancer Institute 82, 1107-1112 (1990)]. Excess reagent was removed by washing plates in 5% acetic acid, the dye was solubilized in 10 mM Tris base, and absorbance determined in a UV Max spectrophotometer (Molecular Devices, Menlo Park, Calif.) at 540 nm. Cell survival was estimated relative to control wells (no drugs). EC50 values (μM) were estimated from cytotoxicity curves. For S1, the values shown [mean ±SE (number of independent observations)] are taken from Zhang et al., “P-Glycoprotein Mediates Profound Resistance to Bisantrene,” Oncol. Res., 6:291-301, 1994. Values for S1-M1-3.2 are compiled from 2-7 independent experiments.

The test system of assay [2] is MCF/MX cells. The experiment in a line: Resistance of MCF/MX cells to camptothecins. The format is cell-based.
In assay [3] the test system is S1-M1-3.2 cells. As to the kind of experiment: Dose modifying factor of FTC (SRB, EC50 ratio). The format is cell-based, human. To be noted: S1-M1 versus S1, no reversal agent. The protocol: (§1) Cell survival was estimated after 3 days using the SRB assay. Cell survival was determined by the SRB assay and EC50 values were determined from toxicity curves. The dose modifying factor (DMF) is the ratio of EC50 values obtained in the absence and presence of reversal agent. Maximum DMF values (shown in parentheses) is the ratio of EC50 values of resistant and sensitive cells in the absence of the reversal agent. This value is obtained when resistance is reversed completely, and is the equivalent of the relative resistance.

Assay [4] deals with MCF 7/AdVp cells. The format is cell-based, human. The procedure: as §1
(§2) In order to determine the utility of FTC as a reversal agent in other multidrug resistant cell lines, FTC was tested in two breast cancer cell lines which show a multidrug resistant phenotype with no overexpression of P-gp or MRP.

Assay [5] relates to MCF 7/mtxR cells. It is filed as cell-based, human. The protocol:
as §1, §2

The subject of assay [6] is HL-60/AR cells. It is filed as cell-based. The protocol: as §1
Assay [7] relates to MCF-7/BCRP cells. As to the kind of experiment: Dose modifying factor of FTC in BCRP-transfected cells. Particulars: MCF-7/BCRP versus MCF-7, no reversal agent. It is filed as cell-based, human. The procedure:
Cell survival was estimated after 3 days using the SRB assay, and EC50 values were determined from cytotoxicity curves.

The test system of assay [8] is S1 cells. As to the kind of experiment: Drug accumulation analysis with [14C] drug. The format is cell-based, human. Particulars: [14C] drug, 90 minutes at 37° C. The protocol:
(§3) To determine the mechanism of resistance, drug resistant and sensitive cells were incubated with radioactive analogues of antitumor agents and cell-associated radioactivity was measured by scintillation counting. Alternatively, surrogates of chemotherapeutic drugs may be used. The surrogate has no antitumor activity itself but interacts with the cancer cell proteins such as P-gp or MRP in a similar manner as an anticancer drug. The surrogate chemotherapeutic drug would have a property such as fluorescence which is useful for determining the drug resistance mechanisms such as efflux.
(§4) Cells were plated in 60 mm dishes (1×10^6 cells per dish) or in 24 well clusters (2 ×10^5 cells per well) and allowed to grow for 1-2 days. […] Drugs used were [^14C]-mitoxantrone (Amersham, 1 or 5 μM; specific activity 66 mCi/mmol) or [^14C]-doxorubicin (Amersham, 0.5 or 3 μM; specific activity 50-62 mCi/mmol ). […] Unbound drug was removed by washing twice in ice-cold phosphate buffered saline (PBS), cells were solubilized in 2 N NaOH at 37° C. for 1-2 hours, and analyzed by scintillation counting. Results were normalized to cell protein content measured by a Lowry assay.
(§5) The cells were then washed, solubilized, and counted in a scintillation counter. Values are mean disintegration per minute per μg protein of triplicate determinations ± standard deviation.

Assay [9] has as its system S1-B1-20 cells. The experiment in a line: Drug accumulation analysis with [14C] drug. The format is cell-based, human. To be noted: [14C] drug, 90 minutes at 37° C. The procedure:
as §3, §4, §5

The subject of assay [10] is S1-M1-3.2 cells. As to the kind of experiment: Drug accumulation analysis with [14C] drug. It is filed as cell-based, human. Particulars: for Drug Accumulation, no FTC: S1-M1-3.2 cells, [14C] drug, 90 minutes at 37° C.; for drug accumulated compared with the parental cells: S1-M1-3.2 versus S1, no FTC. The protocol:
as §3, §4, §5

For assay [11], the system named is MCF-7/BCRP cells. The format is cell-based, human. Particulars: MCF-7/BCRP; 1 μM [14C]-doxorubicin, 1 hour retention phase. The procedure: All incubations were carried out in the absence or presence of FTC (1 or 5 μM).
For assay [12], the system named is S1 cells.
Procedure: (§6) Cell-associated radioactivity was measured at the indicated times. Values are mean percentage of drug remaining (triplicate determinations) ± standard deviation.
(§7) After 1 hour, cells were prepared for analysis by scintillation counting. Values shown are mean percentage of drug remaining (triplicate determinations) ± standard deviation.
The test system of assay [13] is S1-M1-3.2 cells.
Procedure: as §6, §7
Assay [14] deals with S1-B1-20 cells.
Procedure: as §6, §7

Where two headings read alike, the source gives them in different places.

As to `CC[C@@]1(O)C(=O)OCc2c1cc1n(c2=O)Cc2cc3ccccc3nc2-1` [camptothecin], the “S1-M1-3.2 (relative resistance)” value in assay [1] worked out at 2. Also, the “resistance of MCF/MX cells” value in assay [2] is 3.2 fold.

In the case of `CC(=O)O[C@H]1C(=O)[C@@]2(C)[C@H]([C@H](OC(=O)c3ccccc3)[C@]3(O)C[C@H](OC(=O)[C@H](O)[C@@H](NC(=O)c4ccccc4)c4ccccc4)C(C)=C1C3(C)C)[C@]1(OC(C)=O)CO[C@@H]1C[C@@H]2O` [paclitaxel, reference compound], in [1], the “S1-M1-3.2 (relative resistance)” value worked out at 6. The “Maximum DMF (in parentheses; relative resistance to the antitumor agent)” value in assay [3] is on record as 6; in assay [4], 0.7 (10.7); in assay [5], 1.1 (2.0); in assay [6], 2.6 (5.1); in assay [7], 2.7.

On to `COc1cccc2c1C(=O)c1c(O)c3c(c(O)c1C2=O)C[C@@](O)(C(=O)CO)C[C@@H]3O[C@H]1C[C@H](N)[C@H](O)[C@H](C)O1` [doxorubicin, reference compound], for which the “Drug Accumulation, no FTC” value in assay [8] was 114 ± 11 DPM/μg protein; in assay [9], 23 ± 1 DPM/μg protein; in assay [10] it was 19 ± 3 DPM/μg protein. The “drug accumulated compared with the parental cells” value in assay [10] was 17%. The “[^14C] doxorubicin retention, No FTC” value in assay [11] was 5.4 ± 0.48 DPM per microgram protein.

`O=C1c2c(O)ccc(O)c2C(=O)c2c(NCCNCCO)ccc(NCCNCCO)c21` [mitoxantrone]: in assay [1], the “S1-M1-3.2 (relative resistance)” value is recorded as 1435. Further, the figures for the “Drug Accumulation, no FTC” value in assay [8], in assay [9] and in assay [10] were 2430 ± 252 DPM/μg protein, 1086 ± 100 DPM/μg protein and 996 ± 57 DPM/μg protein, respectively. Further, the “drug accumulated compared with the parental cells” value in assay [10] worked out at 41%. Also, the “Maximum DMF (in parentheses; relative resistance to the antitumor agent)” value in assay [3] was 1435; in [5] it was 114 (2090); in assay [6], 3.3 (53); in assay [7], 35.1. In addition, the “% mitoxantrone remaining over time (hours)” value (“% mitoxantrone remaining” below) in [12] (0 h) is given as 100 ± 6%; in assay [12] (0.5 h), 99 ± 17%; in [12] (1 h), 101 ± 3%; in assay [12] (2 h), 100 ± 11%; in [12] (4 h) it was 95 ± 13%; in assay [13] (0 h) it was 100 ± 2%. The “% mitoxantrone remaining” value stood at 51 ± 6% in assay [13] (0.5 h); 44 ± 1% in [13] (1 h); 45 ± 3% in assay [13] (2 h); 31 ± 2% in assay [13] (4 h); 100 ± 5% in assay [14] (0 h); 58 ± 4% in assay [14] (0.5 h). In addition, the “% mitoxantrone remaining” value in assay [14] (1 h) worked out at 45 ± 10%; in assay [14] (2 h) it was 41 ± 3%; in assay [14] (4 h) it was 39 ± 3%.

Regarding `CC[C@@]1(O)C(=O)OCc2c1cc1n(c2=O)Cc2cc3c(N)cccc3nc2-1` [9-amino camptothecin], the “resistance of MCF/MX cells” value in assay [2] is given as 120 fold.
